Results from patent publication US20160207906A1, “NOVEL 2,6-DIAMINOPYRIMIDINE DERIVATIVE” (CARNA BIOSCIENCES, INC., priority 2013, published 2016).
“Also recorded” adds a separate entry of the source.

Biological target: T1, Dephosphorylated BTK (Homo sapiens, UniProt Q06187)
T1 construct: purchased Carna Biosciences, Inc
Test: BTK activity inhibition test (mobility shift assay, dephosphorylated BTK)
Format: biochemical
Settings: 200 μM ATP in substrate mixture, 1 hour at room temperature
Protocol: Dephosphorylated BTK was obtained by adding A protein phosphatase (manufactured by New England BioLabs Inc., Code No. P0753S) and MnCl2 at 10 U/μg and 2 mM, respectively to biotinylated BTK protein BTN-BTK (manufactured by Carna Biosciences, Inc.) enzyme solution, reacting the mixture at 4° C. overnight, and removing of A protein phosphatase by anti DYKDDDDK-tag antibody agarose gel chromatography, followed by buffer exchange using a 10DG Desalting Column.
The kinase activity was measured using QuickScout Screening Assist (trade mark) MSA (commercially available kit manufactured by Carna Biosciences, Inc.) by mobility shift assay (MSA) method. The substrate of the kinase reaction was an FITC-labeled SRCtide peptide included in the kit. An assay buffer [20 mM HEPES, 0.01% Triton X-100 (Trade mark), 2 mM dithiothreitol, pH7.5] was used and adjusted at 4 μM substrate, 20 mM MgCl2 and 200 μM ATP to obtain a substrate mixture solution. The enzyme solution was also prepared by diluting the dephosphorylated BTK to 0.6 nM using the assay buffer. The 10 mM solution of the test compound in DMSO was further diluted with DMSO to 10 levels of the concentration (0.00003 mM, 0.0001 mM, 0.0003 mM, 0.001 mM, 0.003 mM, 0.01 mM, 0.03 mM, 0.1 mM, 0.3 mM, 1 mM), each of which was subjected to a 25-fold dilution with the assay buffer to obtain the drug solutions (4% DMSO solutions), 5 μL of the drug solution or a control solution (4% DMSO-assay buffer), 5 μL of the substrate mixture solution, and 10 μL of the enzyme solution were mixed in the wells of a polypropylene 384-well plate and allowed to react at room temperature for 1 hour, and then quenched by adding 60 μL of the termination buffer included in the kit. Subsequently, the quantities of the substrates (S) and the phosphorylated substrate (P) in the reaction solution were measured using LabChip EZ Reader II system (manufactured by Caliper Life Sciences) according to the protocol of the assay kit.
The heights of the peaks of the isolated substrate and the phosphorylated substrate were represented as S and P, respectively, and a blank which contained the assay buffer instead of the enzyme solution was also measured.
The inhibition rate (%) of the test compound was calculated according to the following equation.
Inhibition rate (%)=(1−(C−A)/(B−A))×100
wherein, A, B and C represent P/(P+S) of the blank well, P/(P+S) of the control well and P/(P+S) of the compound-containing well, respectively.
The IC50 value was calculated via a regression analysis of the inhibition rate (%) and the test compound concentration (logarithmic value).

T1 sequence (Q06187 whole entry): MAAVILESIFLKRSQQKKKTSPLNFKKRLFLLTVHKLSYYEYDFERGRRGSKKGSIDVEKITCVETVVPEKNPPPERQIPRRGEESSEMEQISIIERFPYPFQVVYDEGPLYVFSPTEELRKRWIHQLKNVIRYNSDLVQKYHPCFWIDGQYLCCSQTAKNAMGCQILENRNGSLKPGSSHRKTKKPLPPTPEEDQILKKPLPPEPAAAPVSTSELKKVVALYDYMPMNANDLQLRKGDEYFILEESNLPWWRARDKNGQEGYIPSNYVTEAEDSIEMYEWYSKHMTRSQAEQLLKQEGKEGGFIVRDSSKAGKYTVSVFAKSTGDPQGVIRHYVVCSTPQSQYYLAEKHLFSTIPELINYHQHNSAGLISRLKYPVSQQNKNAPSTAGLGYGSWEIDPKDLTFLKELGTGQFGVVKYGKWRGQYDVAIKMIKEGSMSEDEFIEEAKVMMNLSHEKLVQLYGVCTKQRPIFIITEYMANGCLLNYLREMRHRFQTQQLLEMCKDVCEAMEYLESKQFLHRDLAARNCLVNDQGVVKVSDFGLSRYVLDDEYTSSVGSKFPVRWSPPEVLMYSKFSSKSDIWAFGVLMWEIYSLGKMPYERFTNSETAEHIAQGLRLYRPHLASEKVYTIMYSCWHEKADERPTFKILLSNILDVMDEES

In order of falling IC50:
1. Cn1cc(Nc2nc(N)cc(-c3cccc(-n4ccc5cc(C6CC6)cc(F)c5c4=O)c3CO)n2)cn1 [Example 2, 2-(3-{6-Amino-2-[ (1-methyl-1H-pyrazol-4-yl)amino]pyrimidin-4-yl}-2-(hydroxymethyl)phenyl)-6-cyclopropyl-8-fluoroisoquinolin-1 (2H)-one]  6400 pM
2. Nc1cc(-c2cccc(-n3ccc4cc(C5CC5)cc(F)c4c3=O)c2CO)nc(Nc2ccc(N3CCOCC3)cc2)n1 [Example 1, 2-(3-{6-Amino-2-[(4-morpholinophenyl)amino]pyrimidin-4-yl}-2-(hydroxymethyl)phenyl)-6-cyclopropyl-8-fluoroisoquinolin-1 (2H)-one]  2100 pM
3. N#Cc1cc(Nc2nc(N)cc(-c3cccc(-n4ccc5cc(C6CC6)cc(F)c5c4=O)c3CO)n2)cn1C1CC1 [Example 10, 4-({4-Amino-6-[3-(6-cyclo-propyl-8-fluoro-1-oxoiso-quinolin-2(1H)-yl)-2-(hydroxymethyl)phenyl]pyrimidin-2-yl}amino)-1-cyclopropyl-1H-pyrrole-2-carbonitrile]  2100 pM
4. Cn1cc(Nc2nc(N)cc(-c3cccc(-n4ccc5cc(C6CC6)cc(F)c5c4=O)c3CO)n2)cc1C#N [Example 5, 4-({4-Amino-6-[3-(6-cyclo-propyl-8-fluoro-1-oxoiso-quinolin-2(1H)-yl)-2-(hydroxymethyl)phenyl]pyrimidin-2-yl}amino)-1-methyl-1H-pyrrole-2-carbonitrile]  1700 pM
5. CC(=O)c1cc(Nc2nc(N)cc(-c3cccc(-n4ccc5cc(C6CC6)cc(F)c5c4=O)c3CO)n2)cn1C [Example 17, 2-(3-{2-[(5-Acetyl-1-methyl-1H-pyrrol-3-yl)amino]-6-aminopyrimidin-4-yl}-2-(hydroxymethyl)phenyl)-6-cyclopropyl-8-fluoroiso-quinolin-1(2H)-one]  800 pM
6. Cn1cc(Nc2nc(N)cc(-c3ccnc(-n4ccc5cc(C6CC6)cc(F)c5c4=O)c3CO)n2)cn1 [Example 22, 2-(4-{6-Amino-2-[(1-methyl-1H-pyrazol-4-yl)amino]pyrimidin-4-yl}-3-(hydroxy-methyl)pyridin-2-yl)-6-cyclo-propyl-8-fluoroisoquinolin-1(2H)-one]  800 pM
7. Cn1cc(Nc2nc(N)cc(-c3cccc(-n4ncc5cc(C6CC6)cc(F)c5c4=O)c3CO)n2)cn1 [Example 20, 2-(3-{6-Amino-2-[(1-methyl-1H-pyrazol-4-yl)amino]pyrimidin-4-yl}-2-(hydroxy-methyl)phenyl)-6-cyclopropyl-8-fluorophthalazin-1(2H)-one]  600 pM
8. Nc1cc(-c2cccc(-n3ccc4cc(C5CC5)cc(F)c4c3=O)c2CO)nc(Nc2cn[nH]c2)n1 [Example 18, 2-(3-{2-[(1H-Pyrazol-4-yl)amino]-6-aminopyrimidin-4-yl}-2-(hydroxymethyl)phenyl)-6-cyclopropyl-8-fluoroiso-quinolin-1(2H)-one]  600 pM
9. CN1CCN(c2ccc(Nc3nc(N)cc(-c4cccc(-n5ccc6cc(C7CC7)cc(F)c6c5=O)c4CO)n3)cc2)CC1 [Example 15, 2-[3-(6-Amino-2-{[4-(4-methylpiperazin-1-yl)phenyl]amino}pyrimidin-4-yl)-2-(hydroxymethyl)phenyl]-6-cyclopropyl-8-fluoroisoquinolin-1(2H)-one]  400 pM
10. Cn1cc(Nc2nc(N)cc(-c3cccc(-n4ncc5cc(C6CC6)cc(F)c5c4=O)c3CO)n2)cc1C#N [Example 24, 4-({4-Amino-6-[3-(6-cyclo-propyl-8-fluoro-1-oxo-phthalazin-2(1H)-yl)-2-(hydroxymethyl)phenyl]pyrimidin-2-yl}amino)-1-methyl-1H-pyrrole-2-carbonitrile]  400 pM
11. Nc1cc(-c2cccc(-n3ncc4cc(C5CC5)cc(F)c4c3=O)c2CO)nc(Nc2cnn(C3CC3)c2)n1 [Example 21, 2-(3-{6-Amino-2-[(1-cyclo-propyl-1H-pyrazol-4-yl)amino]pyrimidin-4-yl}-2-(hydroxymethyl)phenyl)-6-cyclopropyl-8-fluoro-phthalazin-1(2H)-one]  400 pM
12. Nc1cc(-c2cccc(-n3ccc4cc(C5CC5)cc(F)c4c3=O)c2CO)nc(Nc2cnn(C3CC3)c2)n1 [Example 9, 2-(3-{6-Amino-2-[(1-cyclopropyl-1H-pyrazol-4-yl)amino]pyrimidin-4-yl}-2-(hydroxymethyl)phenyl)-6-cyclopropyl-8-fluoroisoquinolin-1(2H)-one]  300 pM
13. Nc1cc(-c2cccc(-n3ccc4cc(C5CC5)cc(F)c4c3=O)c2CO)nc(Nc2cnn(CC3CC3)c2)n1 [Example 8, 2-[3-(6-Amino-2-{[1-(cyclopropylmethyl)-1H-pyrazol-4-yl]amino}pyrimidin-4-yl)-2-(hydroxymethyl)phenyl]-6-cyclopropyl-8-fluoroisoquinolin-1(2H)-one]  300 pM
14. Cn1cc(Nc2nc(N)cc(-c3cccc(-n4ccc5cc(C(C)(C)C)cc(F)c5c4=O)c3CO)n2)cn1 [Example 7, 2-(3-{6-Amino-2-[(1-methyl-1H-pyrazol-4-yl)amino]pyrimidin-4-yl}-2-(hydroxymethyl)phenyl)-6-(tert-butyl)-8-fluoro-isoquinolin-1(2H)-one]  300 pM
15. Cn1cc(Nc2nc(N)cc(-c3cccc(-n4ccc5cc(C6(C)CC6)cc(F)c5c4=O)c3CO)n2)cn1 [Example 25, 2-(3-{6-Amino-2-[(1-methyl-1H-pyrazol-4-yl)amino]pyrimidin-4-yl}-2-(hydroxy-methyl)phenyl)-8-fluoro-6-(1-methylcyclopropyl) isoquinolin-1(2H)-one]  200 pM

System: anti-IgM antibody BCR stimulation-induced intracellular calcium influx in Ramos cells
Test: Inhibition test on the change of Ramos intracellular calcium ion
Format: cell-based
Settings: Fluo-8NW, anti-IgM antibody 2.0 μg/mL
Protocol: The intracellular BTK inhibition by the compounds of the present invention was verified by measuring the effects of the compounds of the present invention on “anti-IgM antibody BCR stimulation-induced intracellular calcium influx”.
One day before measurement, the Ramos cells were cultured as being suspended again at a cell density of 1.0×10^6 cells/mL in a fresh growth medium (growth medium as used in Test Example 2), and the cells were recovered next day by centrifugation and washed with RPMI-1640 medium supplemented with 5% penicillin-streptomycin (Nacalai Tesque, Inc.) (Medium 1). These cells were suspended again at a cell density of 2.0×10^6 cells/mL in RPMI-1640 medium supplemented with 1% Ultra Low IgG FBS (GIBCO, #16250) and 5% penicillin-streptomycin (Nacalai Tesque, Inc.) (Medium 2), and thereafter each 100 μL of the cell suspension was added to each well of a Poly Lysine-coated microplate (BD BioCoat™, #356692), centrifuged (700 rpm, 3 minutes) and then incubated for 1 hour in a 5% CO2 incubator at 37° C. […]
The Ramos intracellular calcium ion concentration was measured as a fluorescent intensity of the calcium indicator Fluo-8NW using a microplate reader (SynergyH1) (Ex/Em=490/525 nm). […]

`Cn1cc(Nc2nc(N)cc(-c3cccc(-n4ccc5cc(C6CC6)cc(F)c5c4=O)c3CO)n2)cn1` [Example 2, 2-(3-{6-Amino-2-[ (1-methyl-1H-pyrazol-4-yl)amino]pyrimidin-4-yl}-2-(hydroxymethyl)phenyl)-6-cyclopropyl-8-fluoroisoquinolin-1 (2H)-one] was tested, and the “inhibition of anti-IgM antibody BCR stimulation-induced intracellular calcium ion variation (FIG. 1)” value was “in a concentration-dependent manner from a low concentration; also recorded: inhibit the flux of calcium into the cells”.
With `Nc1cc(-c2cccc(-n3ccc4cc(C5CC5)cc(F)c4c3=O)c2CO)nc(Nc2ccc(N3CCOCC3)cc2)n1` [Example 1, 2-(3-{6-Amino-2-[(4-morpholinophenyl)amino]pyrimidin-4-yl}-2-(hydroxymethyl)phenyl)-6-cyclopropyl-8-fluoroisoquinolin-1 (2H)-one] the “inhibition of anti-IgM antibody BCR stimulation-induced intracellular calcium ion variation (FIG. 1)” value was “in a concentration-dependent manner from a low concentration; also recorded: inhibit the flux of calcium into the cells”.
